From patent US20060122105A1, “Method of improing the growth performance of an animal” (priority 2001, published 2006)

How the values were obtained:
[1] = test system: Actinobacillus pleuropneumoniae (App); assay: App challenge of pigs, prophylactic recombinant IL-1ra, plasmid IL-1ra or flunix (Example 5); type: in vivo; set-up: improvements in weight gain over saline controls / reduction in weight gain compared to saline controls / reduction in clinical symptoms compared to saline / reduction of pleurisy compared to saline treated controls / reduction in affected lung mass compared to saline treated controls: concentration or dose not given beside the values
Experimental: Male pigs, with a mean starting weight of 52 kg, were allocated to 5 treatment groups as outlined in Table 6. Pigs were housed in group pens, with each pen containing a replicate from each of the treatment groups. The starting weights of each treatment group and each pen were equal prior to the start of the trial. Pigs were provided with pelleted feed and water ad libitum.
Recombinant IL-1ra and saline-were administered as 1 ml doses, given subcutaneously behind the ear. Plasmids were administered in 1 ml doses, given intramuscularly in the hind-leg. Flunix was administered as a 2 ml dose according to the manufacturer's instructions, and delivered intramuscularly in the neck. The timetable of administration is outlined in Table 6 below.
Prior to challenge, pigs were treated with recombinant cytokines, flunix or plasmids as described Table 7. Pigs were anaesthetised and infected intratracheally with 7.5×10^5 pfu App on day 0.
Blood was sampled from pigs by venipuncture at 0, 24 h and 14 days post-challenge. Blood was assayed for immunological parameters as previously described. Pigs were weighed weekly from delivery of plasmids and for 2 weeks after challenge.
At the conclusion of the trial, pigs were euthanased and the lungs removed for post-mortem examination. Lungs were scored for pleurisy from 0-5 (FIGS. 39 and 40) and the degree of pleuropneumonia was determined by weighing affected lung and expressed as a percentage of total lung weight (FIGS. 41 and 42). Pigs treated with flunix and IL-1ra had less pleurisy than the saline controls (FIG. 39).

[2] = test system: Actinobacillus pleuropneumoniae (App); assay: as above; type: in vivo; settings: day 13 after challenge compared with pre-challenge levels; FIG. 35

## Cc1c(Nc2ncccc2C(=O)O)cccc1C(F)(F)F [flunix, reference compound]
[1]; 14d App challenge, FIG. 33
  reduction in weight gain compared to saline controls: 84.6%
[1]; after App challenge, compared with saline treated controls, FIG. 36
  production of IL-6 (mRNA in peripheral blood): reduce the production of IL-6 only
[1]; first week after App challenge, FIG. 30
  growth during the week of challenge: weight loss
[1]; percentage of lung affected by App lesions, FIG. 42
  reduction in affected lung mass compared to saline treated controls: 64.1%
[1]; pleurisy score 0-5 at necropsy, FIG. 40
  reduction of pleurisy compared to saline treated controls: 55.6%
[2]
  levels of TNFα protein in the serum: failed to inhibit the production of TNFα
